The record followed here is patent publication US11498909B2, “Compound acting as antibiotics” (KBP BIOSCIENCES CO., LTD., priority 2018, dated 2022).

For orientation: MIC50 means the lowest concentration that inhibits either 50% of growth or 50% of the strains tested, depending on the study. By MIC90 is commonly meant an inhibitory concentration at the 90% level, which refers to growth in some studies and to a panel of isolates in others. A word on the AUC(0-t): it is exposure summed from dosing to a finite time, without extrapolation to infinity. A low value points to low exposure.

≈ marks a conversion by molar mass, not a printed value. Like-named read-outs stand apart in the source and are kept apart here.

The subject of one data set is Pseudomonas aeruginosa. Description: In vitro antibacterial activity, agar dilution MIC (Experiment 1). Type of data set: cell-based. How it is done:
Tested strains: all the clinically separated strains below were purchased from public facilities.
Escherichia coli ATCC25922, Pseudomonas aeruginosa ATCC27853, Klebsiella pneumoniae ATCC700603, and the like.
Tested Samples: Imipenem, Ceftazidime: Commercial Products, the Following Experiments were Carried Out According to the Content of an Effective Ingredient in Each Commercial Product;
The compounds of the present invention, their chemical names, and preparation methods are shown in the preparation example of each compound.
Experiment method: Agar dilution method, refer to National Committee for Clinical Laboratory Standards. 2006. Methods for Dilution Antimicrobial Susceptibility Tests for Bacteria That Grow Aerobically; Approved Standard—Seventh Edition M7-A7, Vol 26, No. 2, 2006, to determine the MIC of the compound. MIC represents the minimum inhibitory concentration.
A general note: In agar dilution the substance is mixed into plates at graded concentrations.

Data set [1] can be described thus: Pharmacokinetics (PK) determination in SD rats (Experiment 4). Type of data set: in vivo. The following applies: plasma; for AUC(0-t) / AUC(0-inf): Sprague-Dawley (SD), rat, iv; for AUC(0-inf): read-out: AUCINF_obs. The procedure:
The compound of the present invention, self-prepared and dissolved in a suitable solvent.
Instrument and equipment: API4000 LC-MS/MS
Chromatographic column: Waters XBridge C18(2.1×50 mm, […])
Rat blood collection: Animals were fixed. The animal's tail was heated with a water bathtub 10 minutes before each time point. About 200 μL of the blood was collected through the caudal vein. After the blood collection, the blood was placed in an anticoagulation tube containing heparin sodium. The blood samples were centrifuged at 8000 rpm for 6 minutes at 4° C. to obtain plasma samples. The plasma must be prepared within 30 minutes after the blood collection. The plasma was stored in a refrigerator at −80° C. before the test.
(1) Test samples were removed from the refrigerator (−80° C.), naturally thawed at room temperature, and then vortexed for 5 minutes;
(2) 20 μL sample was precisely pipetted to a 1.5 mL centrifuge tube;
(3) 200 μL of the internal standard solution was added;
(4) The mixture was vortexed for 5 minutes and centrifuged for 5 minutes (12000 revolutions per minute);
(5) 100 μL of the supernate was precisely pipetted, 100 μL of water was added, the mixture was vortexed for 5 minutes, and the sample was sent to LC-MS/MS for analysis.
The results of the concentrations of the test samples (plasma samples) were output with Analyst 1.6.1 of AB Corporation. The meaning value, the standard deviation, the coefficient of variation, and other parameters (not necessary to calculate the parameter that can be directly output from Analyst 1.6.1) were calculated with Microsoft Excel, and the PK parameter is calculated with Pharsight Phoenix 6.1 software.

Setting [2] is: agar dilution (Table 3), read-out: MIC50.
Setting [3] is: agar dilution (Table 3), read-out: MIC90.

As for `CC(O)C(NC(=O)c1ccc(/C=C/C=C/c2ccco2)cc1)C(=O)NO` (racemic) [Compound 25], the MIC50 with Pseudomonas aeruginosa (setting [2]) came out at 1 µg/mL (≈ 2.81 µM). The MIC90 in the data set with Pseudomonas aeruginosa (setting [3]) is more than 16 µg/mL.

Take `CC(C)(O/N=C(\C(=O)N[C@@H]1C(=O)N2C(C(=O)[O-])=C(C[n+]3ccccc3)CS[C@H]12)c1csc(N)n1)C(=O)O` [Ceftazidime, reference compound]: the MIC50 with Pseudomonas aeruginosa (setting [2]) came to 2 µg/mL (≈ 3.66 µM). Further, the MIC90 in the data set on Pseudomonas aeruginosa (setting [3]) is more than 16 µg/mL.

In the case of `C[C@@H](O)[C@H](NC(=O)c1ccc(/C=C/C=C/c2ccco2)cc1)C(=O)NO` [Compound 1, 4-((1E,3E)-4-(furan-2-yl)buta-1,3-dienyl)-N-((2S,3R)-3-hydroxy-1-(hydroxyamino)-1-oxobutan-2-yl)benzamide], in the data set on Pseudomonas aeruginosa (setting [2]), the MIC50 was 1 µg/mL (≈ 2.81 µM). Moreover, the MIC90 with Pseudomonas aeruginosa (setting [3]) was more than 16 µg/mL.

Turning to `C[C@@H](O)[C@H](NC(=O)c1ccc(/C=C/C=C/c2ccc(CO)o2)cc1)C(=O)NO` [Compound 3, N-((2S,3R)-3-hydroxy-1-(hydroxamino)-1-oxobutan-2-yl)-4-((1E,3E)-4-(5-(hydroxymethyl)furan-2-yl)buta-1,3-dienyl)benzamide], the MIC50 in the data set with Pseudomonas aeruginosa (setting [2]) was 2 µg/mL (≈ 5.18 µM). Further, the MIC90 in the data set with Pseudomonas aeruginosa (setting [3]) amounted to 16 µg/mL (≈ 41.4 µM).

Take `C[C@H](O)[C@H](NC(=O)c1ccc(C#CC#Cc2ccc(CO)o2)cc1)C(=O)NO` [Compound 10, N-((2S,3S)-3-hydroxy-1-(hydroxyamino)-1-oxobutan-2-yl)-4-((5-(hydroxymethyl)furan-2-yl)buta-1,3-diynyl)benzamide]: in data set [1] (IV 2 mg/kg, 2 mg/kg), the AUCINF_obs was found to be 4902 ± 532 ng·h/mL, the AUClast was determined as 4891 ± 533 ng·h/mL, the Cl_obs was found to be 17.2 ± 1.83 mL/min/kg and the Vz_obs came out at 1.03 ± 0.11 L/kg. For the same molecule, in data set [1] (IV 2 mg/kg, 2 mg/kg), the t1/2z amounted to 44.4 ± 9.6 min and the λ_z was found to be 0.97 ± 0.23 h⁻¹. Further, in the data set with Pseudomonas aeruginosa (agar dilution (Table 3)), the MIC50 is 0.125 µg/mL (≈ 0.327 µM) and the MIC90 is 1 µg/mL (≈ 2.62 µM).

Regarding `C[C@@H](O)[C@H](NC(=O)c1ccc(C#CC#Cc2ccc(CNCCCN)o2)cc1)C(=O)NO` [Compound 12, 4-((5-((3-aminopropylamino)methyl)furan-2-yl)buta-1,3-diynyl)-N-((2S,3R)-3-hydroxy-1-(hydroxyamino)-1-oxobutan-2-yl)benzamide], the MIC50 in the data set with Pseudomonas aeruginosa (setting [2]) came to 2 µg/mL (≈ 4.56 µM). Further, the MIC90 in the data set on Pseudomonas aeruginosa (setting [3]) was 4 µg/mL (≈ 9.12 µM).

Consider `C[C@@H](O)[C@H](NC(=O)c1ccc(C#CC#Cc2ccc(CN3CCN(C)CC3)o2)cc1)C(=O)NO` [Compound 13, N-((2S,3R)-3-hydroxy-1-(hydroxyamino)-1-oxobutan-2-yl)-4-((5-((4-methylpiperazin-1-yl)methyl)furan-2-yl)buta-1,3-diynyl)benzamide], for which, in data set [1] (IV 2 mg/kg), the Cl_obs is 69 ± 11.7 mL/min/kg, the Vz_obs is 2.09 ± 0.39 L/kg, the t1/2z was 21 ± 0.6 min and the λ_z worked out at 1.98 ± 0.04 h⁻¹. Moreover, in data set [1] (2 mg/kg), the area under the curve AUC(0-t) was 485 ± 87.4 ng·h/mL and the AUC(0-inf) amounted to 493 ± 87.9 ng·h/mL. Moreover, in the data set on Pseudomonas aeruginosa (setting [2]), the MIC50 was 2 µg/mL (≈ 4.31 µM). The MIC90 with Pseudomonas aeruginosa (setting [3]) was 8 µg/mL (≈ 17.2 µM).

With `C[C@@H](O)[C@H](NC(=O)c1ccc(C#CC#Cc2oc(CO)cc2-c2ccccc2)cc1)C(=O)NO` [Compound 17, N-((2S,3R)-3-hydroxy-1-(hydroxyamino)-1-oxobutan-2-yl)-4-((5-(hydroxymethyl)-3-phenylfuran-2-yl)buta-1,3-diynyl)benzamide], the MIC50 with Pseudomonas aeruginosa (setting [2]) was 8 µg/mL (≈ 17.4 µM). The MIC90 with Pseudomonas aeruginosa (setting [3]) was more than 16 µg/mL.

Consider `C[C@@H](O)[C@H](NC(=O)c1ccc(C#CC#Cc2ccc(CN3CCNCC3)o2)cc1)C(=O)NO` [Compound 24, N-((2S,3R)-3-hydroxy-1-(hydroxyamino)-1-oxobutan-2-yl)-4-((5-(piperazin-1-ylmethyl)furan-2-yl)buta-1,3-diynyl)benzamide], for which the MIC50 with Pseudomonas aeruginosa (setting [2]) turned out to be 4 µg/mL (≈ 8.88 µM). For the same molecule, the MIC90 with Pseudomonas aeruginosa (setting [3]) is more than 16 µg/mL.

With `C[C@@H](O)[C@H](NC(=O)c1ccc(C(=O)N/N=C/c2ccco2)cc1)C(=O)NO` [Compound 26, 4-(2-(furan-2-methylene)hydrazinecarbonyl)-N-((2S,3R)-3-hydroxy-1-(hydroxyamino)-1-oxobutan-2-yl)-benzamide], the MIC90 with Pseudomonas aeruginosa (setting [3]) worked out at 4 µg/mL (≈ 10.7 µM).

Take `C[C@@H](O)[C@H](NC(=O)c1ccc(C#CC#Cc2ccc(C(N)=O)o2)cc1)C(=O)NO` [Compound 27]: the MIC90 in the data set with Pseudomonas aeruginosa (setting [3]) stood at 4 µg/mL (≈ 10.1 µM).

Turning to `C[C@@H](O)[C@H](NC(=O)c1ccc(C#CC#Cc2ccc(C(=O)N(C)C)o2)cc1)C(=O)NO` [Compound 29], the MIC50 in the data set on Pseudomonas aeruginosa (setting [2]) was 1 µg/mL (≈ 2.36 µM). In addition, the MIC90 with Pseudomonas aeruginosa (setting [3]) amounted to 4 µg/mL (≈ 9.45 µM).

`C[C@@H](O)[C@H](NC(=O)c1ccc(/C=C/C=C/c2ccc(CO)o2)nc1)C(=O)NO` [Compound 32]: in data set [1] (IV 2 mg/kg), the Cl_obs came to 96.7 ± 8.83 mL/min/kg, the Vz_obs is on record as 4.24 ± 1.65 L/kg, the t1/2z was found to be 30.4 ± 10.8 min and the λ_z is 1.48 ± 0.46 h⁻¹. Besides, in data set [1] (2 mg/kg), the exposure AUC(0-t) worked out at 344 ± 33.7 ng·h/mL and the AUC(0-inf) turned out to be 347 ± 32.7 ng·h/mL.

As to `C[C@@H](O)[C@H](NC(=O)c1ccc(C#CC#Cc2ccnn2C)cc1)C(=O)NO` [Compound 34, N-((2S,3R)-3-hydroxy-1-(hydroxamino)-1-oxobutan-2-yl)-4-((1-methyl-1H-pyrazol-5-yl)buta-1,3-diynyl)benzamide], in the data set with Pseudomonas aeruginosa (setting [2]), the MIC50 stood at 4 µg/mL (≈ 10.9 µM). In addition, in the data set on Pseudomonas aeruginosa (setting [3]), the MIC90 was more than 16 µg/mL.

In the data set with Pseudomonas aeruginosa, `Cn1nccc1-c1ccc(C#Cc2ccc(C(=O)N[C@H](C(=O)NO)C(C)(C)N)cc2)cc1` [Compound 35, (S)—N-(3-amino-1-(hydroxyamino)-3-methyl-1-oxobutan-2-yl)-4-((4-(1-methyl-1H-pyrazol-5-yl)phenyl)ethynyl)benzamide] registered an MIC50 of 2 µg/mL (≈ 4.64 µM) and an MIC90 of 16 µg/mL (≈ 37.1 µM).

With `C[C@@H](O)[C@H](NC(=O)c1ccc(C#Cc2ccc(-c3ccnn3C)cc2)cc1)C(=O)NO` [Compound 36, N-((2S,3R)-3-hydroxy-1-(hydroxyamino)-1-oxobutan-2-yl)-4-((4-(1-methyl-1H-pyrazol-5-yl)phenyl)ethynyl)benzamide], the MIC50 with Pseudomonas aeruginosa (setting [2]) is 2 µg/mL (≈ 4.78 µM). The MIC90 in the data set with Pseudomonas aeruginosa (setting [3]) is more than 16 µg/mL.

In data set [1] (IV 2 mg/kg), `Cn1nccc1-c1ccc(C#Cc2ccc(-c3ccn(CCC(C)(C(=O)NO)S(C)(=O)=O)c(=O)c3)cc2)cc1` (centres unmarked) [Compound 38, N-hydroxy-2-methyl-4-(4-(4-((4-(1-methyl-1H-pyrazol-5-yl)phenyl)ethynyl)phenyl)-2-oxopyridin-1(2H)-yl)-2-(methylsulfonyl)butanamide] came in with a Cl_obs of 16.8 ± 1.5 mL/min/kg, a Vz_obs of 1.81 ± 0.17 L/kg, a t1/2z of 75 ± 5.4 min and a λ_z of 0.56 ± 0.04 h⁻¹. In data set [1] (2 mg/kg), the AUC(0-t) is 1940 ± 168 ng·h/mL and the AUC(0-inf) turned out to be 1990 ± 176 ng·h/mL.

As for `C[C@@H](O)[C@H](NC(=O)c1ccc(C#Cc2ccc(-c3ccnn3C)nc2)cc1)C(=O)NO` [Compound 40, N-((2S,3R)-3-hydroxy-1-(hydroxyamino)-1-oxobutan-2-yl)-4-((6-(1-methyl-1H-pyrazol-5-yl)pyridin-3-yl)ethynyl)benzamide], the MIC50 with Pseudomonas aeruginosa (setting [2]) amounted to 2 µg/mL (≈ 4.77 µM). Besides, the MIC90 in the data set on Pseudomonas aeruginosa (setting [3]) amounted to 1 µg/mL (≈ 2.38 µM).

Consider `CC(CCn1ccc(-c2ccc(C#Cc3ccc(CN4CCOCC4)o3)cc2)cc1=O)(C(=O)NO)S(C)(=O)=O` (centres unmarked) [Compound 45, N-hydroxy-2-methyl-2-(methylsulfonyl)-4-(4-(4-((5-(morpholinomethyl)furan-2-yl)ethynyl)phenyl)-2-oxopyridin-1(2H)-yl)butanamide], for which the MIC50 in the data set on Pseudomonas aeruginosa (setting [2]) was 4 µg/mL (≈ 7.22 µM).

Regarding `C[C@@](CCn1ccc(-c2ccc(C#Cc3ccc(CO)o3)cc2)cc1=O)(C(=O)NO)S(C)(=O)=O` [Compound 46], the MIC50 with Pseudomonas aeruginosa (setting [2]) was found to be 1 µg/mL (≈ 2.06 µM). Moreover, the MIC90 with Pseudomonas aeruginosa (setting [3]) came out at 8 µg/mL (≈ 16.5 µM).

Consider `CC(CCn1ccc(-c2ccc(C#CC#Cc3ccc(CO)o3)cc2)cc1=O)(C(=O)NO)S(C)(=O)=O` (centres unmarked) [Compound 47], for which the MIC50 with Pseudomonas aeruginosa (setting [2]) is 4 µg/mL (≈ 7.87 µM). Further, the MIC90 with Pseudomonas aeruginosa (setting [3]) was more than 16 µg/mL.

Turning to `COCc1ccc(C#Cc2ccc(-c3ccn(CCC(C)(C(=O)NO)S(C)(=O)=O)c(=O)c3)cc2)o1` (centres unmarked) [Compound 48], in the data set on Pseudomonas aeruginosa (setting [2]), the MIC50 was determined as 2 µg/mL (≈ 4.01 µM).

In the data set with Pseudomonas aeruginosa (agar dilution (Table 3)), “N-((2S,3R)-3-hydroxy-1-(hydroxyamino)-1-oxobutan-2-yl)-4-((5-((2-(2-hydroxyethoxy)ethylamino)methyl)furan-2-yl)buta-1,3-diynyl)benzamide [Compound 19]” gave an MIC50 of 2 µg/mL and an MIC90 of 8 µg/mL.
